Reference: patent US20090131444A1 (published 2009)
Counter-ions that a name gives are not always drawn.

SMILES	melting point
COc1ccc2nccc(NC(=O)[C@@H]3CC[C@@H](NCc4cc5c(cn4)OCCO5)CO3)c2n1 (as salt: hydrochloride)	> 230 °C (dec.)
COc1ccc2ncc(Cl)c(NC(=O)[C@@H]3CC[C@@H](NCc4cc5c(cn4)OCCO5)CO3)c2c1 (as salt: hydrochloride)	220 °C
COc1ccc2ncc(Cl)c(OC[C@@H]3CC[C@@H](NCc4cc5c(cn4)OCCO5)CO3)c2c1 (as salt: hydrochloride)	191 °C
